Data from patent US20140275078A1, “COMPOSITIONS AND METHODS FOR TREATING CANCER USING PI3KB INHIBITOR AND MAPK PATHWAY INHIBITOR, INCLUDING MEK AND RAF INHIBITORS” (SANOFI, priority 2011, published 2014).
“And” between values parts separate entries of the source, which are not always exact repeats. Equal entries are not always repeated. Where two headings read alike, the source gives them in different places.

Legend:
[1] = test system: human melanoma cell line UACC-62; assay: Cell proliferation (CelltiterGlo, ray design) in UACC-62; format: cell-based; conditions: single agent, 96 hours, 4-parameter logistic model
Protocol: The human melanoma UACC-62 cell line was purchased at NCI (Batch 0503000). The UACC-62 cells were cultured in RPMI1640 medium supplemented with 10% FBS and 2 mM L-Glutamine.
They were diluted in cascade, in DMSO and then diluted 50-fold in culture medium containing 10% serum before being added onto cells with a 20-fold dilution factor. The final concentrations tested were defined by Ray design described in Table 1. The DMSO concentration was 0.1% in controls and in all treated wells.
(§1) UACC-62 cells were plated at 2500 cells/well in 96-well plates in appropriate culture medium and incubated 6 hours at 37° C., 5% CO2. […] Cell growth was evaluated by measuring intracellular ATP using CelltiterGlo® reagent (Promega) according to the manufacturer's protocol. Briefly, Cell Titer Glo was added to each plate, incubated for 1 hour then luminescent signal was read on the MicroBeta Luminescent plate reader. All plates were run in duplicate. All assays were run at least in duplicate.
(§2) Inhibition of cell growth was estimated after treatment with compound or combination of compounds for four days and comparing the signal to cells treated with vehicle (DMSO).
Growth inhibition percentage (GI %) was calculated according to the following equation: GI %=100*(1−((X−BG)/(TC−BG)) […]

[2] = test system: human melanoma cell line WM-266-4; assay: Cell proliferation (CelltiterGlo, ray design) in WM-266-4; format: cell-based; conditions: single agent, 96 hours, 4-parameter logistic model
Protocol: as §1, §2
Growth inhibition percentage (GI %) was calculated according to the following equation: GI %=100*(1−((X−BG)/(TC−BG))
A global non linear mixed model using NLMIXED procedure of SAS V9.2 was applied to fit simultaneously the concentration-responses curves for each ray. The combination index
of each ray i and its 95% confidence interval was then estimated using the following equation: […]
where IC40A and IC40B are the concentrations of compound A and compound B necessary to obtain 40% of inhibition for each compound alone and CA and CB are the concentrations of compound A and compound B in the mixture necessary to obtain 40% of inhibition.
The human melanoma WM-266-4 cell line was purchased at ATCC (Ref number CRL-1676 Batch 3272826). The WM-266-4 cells were cultured in RPMI1640 medium supplemented with 10% FBS and 2 mM L-Glutamine.
Materials and Methods are the same described in example 1.
The human melanoma WM-266-4 cell line was purchased at ATCC (Ref number CRL-1676 Batch 3272826). The WM-266.4 cells were cultured in RPMI1640 medium supplemented with 10% FBS and 2 mM L-Glutamine.

[3] = test system: human melanoma tumors WM-266.4; conditions: for tolerability (body weight loss): Cpd (2a) 25 and 10 mg/kg qd, Cpd (2b) 100 and 50 mg/kg qd, single agents or combination
[4] = Chemical stability of dosing stock solution; conditions: oral dosing formulation of each compound; in the dark at RT
[5] = test system: human melanoma tumors UACC-62; assay: Antitumor activity against subcutaneous UACC-62 tumors in SCID female mice; conditions: for tolerability (body weight loss): single agents or combination
[6] = test system: human primary colon tumors CR-IGR-014P; conditions: Ex. 8, Cpd (I) 150 mg/kg bid
PI3K gamma = PI3K gamma (Homo sapiens, UniProt P48736); conditions: cited from earlier work
Sequence of PI3K gamma (P48736 whole entry): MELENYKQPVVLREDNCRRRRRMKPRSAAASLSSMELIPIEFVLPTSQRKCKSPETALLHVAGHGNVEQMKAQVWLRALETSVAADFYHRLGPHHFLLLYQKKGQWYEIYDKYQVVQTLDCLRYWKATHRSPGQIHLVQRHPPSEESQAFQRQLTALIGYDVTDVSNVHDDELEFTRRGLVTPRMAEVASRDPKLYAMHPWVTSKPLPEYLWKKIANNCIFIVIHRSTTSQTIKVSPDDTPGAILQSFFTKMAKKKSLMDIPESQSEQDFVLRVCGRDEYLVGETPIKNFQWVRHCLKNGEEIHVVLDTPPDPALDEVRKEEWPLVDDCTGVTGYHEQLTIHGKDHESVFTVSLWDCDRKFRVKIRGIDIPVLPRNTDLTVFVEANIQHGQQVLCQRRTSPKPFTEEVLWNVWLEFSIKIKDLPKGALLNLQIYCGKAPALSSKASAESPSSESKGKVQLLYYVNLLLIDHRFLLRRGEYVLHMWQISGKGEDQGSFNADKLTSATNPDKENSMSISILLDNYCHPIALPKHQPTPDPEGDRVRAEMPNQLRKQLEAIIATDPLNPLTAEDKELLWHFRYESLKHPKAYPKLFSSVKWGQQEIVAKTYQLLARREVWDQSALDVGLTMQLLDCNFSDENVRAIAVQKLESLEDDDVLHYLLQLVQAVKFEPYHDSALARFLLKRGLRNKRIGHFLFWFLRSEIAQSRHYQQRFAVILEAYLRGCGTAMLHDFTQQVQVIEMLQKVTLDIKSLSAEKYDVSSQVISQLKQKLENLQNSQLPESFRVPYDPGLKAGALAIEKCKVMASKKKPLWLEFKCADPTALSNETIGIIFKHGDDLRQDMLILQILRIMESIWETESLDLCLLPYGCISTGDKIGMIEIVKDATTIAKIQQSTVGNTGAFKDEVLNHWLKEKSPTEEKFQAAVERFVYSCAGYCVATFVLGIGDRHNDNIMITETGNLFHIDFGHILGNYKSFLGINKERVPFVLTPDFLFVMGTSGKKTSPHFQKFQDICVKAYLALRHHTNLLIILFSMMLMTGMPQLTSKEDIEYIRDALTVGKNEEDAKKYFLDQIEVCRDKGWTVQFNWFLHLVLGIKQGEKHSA

[7] = Ex. 7, Cpd (I) 150 mg/kg bid, Cpd (2b) 50 mg/kg qd, alone or combined, Day 24
[8] = Ex. 7, Cpd (I) 150 mg/kg bid, Cpd (2b) 50 mg/kg qd, alone or combined, Day 27
[9] = Ex. 7, Cpd (I) 150 mg/kg bid, Cpd (2b) 50 mg/kg qd, alone or combined, Day 29
[10] = Ex. 7, Cpd (I) 150 mg/kg bid, Cpd (2b) 50 mg/kg qd, alone or combined, Day 31
[11] = Ex. 7, Cpd (I) 150 mg/kg bid, Cpd (2b) 50 mg/kg qd, alone or combined, Global
[12] = Ex. 7, Cpd (I) 150 mg/kg bid, Cpd (2b) 100 mg/kg qd, alone or combined, Day 24
[13] = Ex. 7, Cpd (I) 150 mg/kg bid, Cpd (2b) 100 mg/kg qd, alone or combined, Day 27
[14] = Ex. 7, Cpd (I) 150 mg/kg bid, Cpd (2b) 100 mg/kg qd, alone or combined, Day 29
[15] = Ex. 7, Cpd (I) 150 mg/kg bid, Cpd (2b) 100 mg/kg qd, alone or combined, Day 31
[16] = Ex. 7, Cpd (I) 150 mg/kg bid, Cpd (2b) 100 mg/kg qd, alone or combined, Global
[17] = Ex. 6, Cpd (I) 151.5 mg/kg bid, Cpd (2b) 50 mg/kg qd, alone or combined, Day 11
[18] = Ex. 6, Cpd (I) 151.5 mg/kg bid, Cpd (2b) 50 mg/kg qd, alone or combined, Day 13
[19] = Ex. 6, Cpd (I) 151.5 mg/kg bid, Cpd (2b) 50 mg/kg qd, alone or combined, Day 15
[20] = Ex. 6, Cpd (I) 151.5 mg/kg bid, Cpd (2b) 50 mg/kg qd, alone or combined, Global
[21] = Ex. 6, Cpd (I) 151.5 mg/kg bid, Cpd (2b) 100 mg/kg qd, alone or combined, Day 11
[22] = Ex. 6, Cpd (I) 151.5 mg/kg bid, Cpd (2b) 100 mg/kg qd, alone or combined, Day 13
[23] = Ex. 6, Cpd (I) 151.5 mg/kg bid, Cpd (2b) 100 mg/kg qd, alone or combined, Day 15
[24] = Ex. 6, Cpd (I) 151.5 mg/kg bid, Cpd (2b) 100 mg/kg qd, alone or combined, Global
[25] = Ex. 6, PO d8-15, Cpd (I) 151.5 mg/kg bid, Cpd (2b) 100 mg/kg qd, alone or combined
[26] = Ex. 7, PO d21-31, Cpd (I) 150 mg/kg bid, Cpd (2a) 10 mg/kg qd, alone or combined
[27] = PO d20-36, Cpd (2a) 10 mg/kg qd, alone or combined
[28] = Ex. 5, PO d11-22, Cpd (I) 150 mg/kg bid, Cpd (2a) 10 mg/kg qd, alone or combined

SMILES	tolerability (body weight loss) ([3]; Ex. 7, Cpd (I) 150 mg/kg bid)	Tumor volume changes from baseline: Median (nMad) [3, 7]	Tumor volume changes from baseline: Median (nMad) [3, 8]	Tumor volume changes from baseline: Median (nMad) [3, 9]	Tumor volume changes from baseline: Median (nMad) [3, 10]	Tumor volume changes from baseline: Median (nMad) [3, 11]	Tumor volume changes from baseline: Median (nMad) [3, 12]	Tumor volume changes from baseline: Median (nMad) [3, 13]	Tumor volume changes from baseline: Median (nMad) [3, 14]	Tumor volume changes from baseline: Median (nMad) [3, 15]	Tumor volume changes from baseline: Median (nMad) [3, 16]	stock solution chemically stable [4] [days]	Tumor volume changes from baseline: Median (nMad) [5, 17]	Tumor volume changes from baseline: Median (nMad) [5, 18]	Tumor volume changes from baseline: Median (nMad) [5, 19]	Tumor volume changes from baseline: Median (nMad) [5, 20]	Tumor volume changes from baseline: Median (nMad) [5, 21]	Tumor volume changes from baseline: Median (nMad) [5, 22]	Tumor volume changes from baseline: Median (nMad) [5, 23]	Tumor volume changes from baseline: Median (nMad) [5, 24]	further results
CCCS(=O)(=O)Nc1ccc(F)c(C(=O)c2c[nH]c3ncc(-c4ccc(Cl)cc4)cc23)c1F [Compound (2b), 1-Propanesulfonamide, N-[3-[[5-(4-chlorophenyl)-1H-pyrrolo[2,3-b]pyridin-3-yl]carbonyl]-2,4-difluorophenyl]]	well tolerated	116 (11.9)	254 (118.6)	322 (94.9)	442 (60.8)	274 (228.3)	36 (26.7)	171 (40)^	226 (86)^	441 (96.4)	193.5 (200.2)^	7	62 (16.3)	157 (132)	240 (132)^	154 (136.4)	54 (60.8)	126 (74.1)	152 (161.6)	98 (89)^	Absolute IC40 ([1]; example 2): 18 nM and 17.7 nM; Absolute IC40 ([2]; example 4): 35 nM; ΔT/ΔC % (day 31) ([3]; Ex. 7, PO d21-31, Cpd (I) 150 mg/kg bid, Cpd (2b) 50 mg/kg qd, alone or combined): > 40%; ΔT/ΔC % (day 31) ([3]; Ex. 7, PO d21-31, Cpd (I) 150 mg/kg bid, Cpd (2b) 50 mg/kg qd, alone or combined, listed as Cpd. 2b): 59%; ΔT/ΔC % (day 31) ([3]; Ex. 7, PO d21-31, Cpd (I) 150 mg/kg bid, Cpd (2b) 100 mg/kg qd, alone or combined): > 40%; ΔT/ΔC % (day 31) ([3]; Ex. 7, PO d21-31, Cpd (I) 150 mg/kg bid, Cpd (2b) 100 mg/kg qd, alone or combined, listed as Cpd. 2b): 59%; Average body weight change in % per mouse at nadir ([3]; mouse, in vivo): −6.6 (31) %; tolerability (body weight loss) ([5]; Ex. 6, Cpd (I) 151.5 mg/kg bid, Cpd (2b) 100 and 50 mg/kg qd): well tolerated inducing minimal bwl; ΔT/ΔC % (day 15) [5, 25]: 20%; Average body weight change in % per mouse at nadir ([5]; mouse, in vivo): −3.7 (13) % and −1.7 (15) %
Cn1cnc2c(F)c(Nc3ccc(Br)cc3Cl)c(C(=O)NOCCO)cc21 [Compound (2a), 1H-Benzimidazole-6-carboxamide, 5-[(4-bromo-2-chlorophenyl)amino]-4-fluoro-N-(2-hydroxyethoxy)-1-methyl]	induced a higher bwl as compared to the control	–	–	–	–	–	–	–	–	–	–	7	–	–	–	–	–	–	–	–	Absolute IC40 ([1]; example 1): 27 nM; Absolute IC40 ([2]; example 3): 33 nM; Average body weight change in % per mouse at nadir [3, 26]: −10.5%; Drug death (Day of death) [3, 26]: 0/7; day of nadir [3, 26]: 31 days; ΔT/ΔC % (day 31) [3, 26]: 36%; tolerability (body weight loss) ([6]; Cpd (2a) 25 and 10 mg/kg qd, single agents or combination): well tolerated inducing minimal bwl; Average body weight change in % per mouse at nadir [6, 27]: −4.2%; Drug death (Day of death) [6, 27]: 0/7; day of nadir [6, 27]: 27 days; ΔT/ΔC % (day 36) [6, 27]: 84%; tolerability (body weight loss) ([5]; Ex. 5, Cpd (I) 150 mg/kg bid, Cpd (2a) 25 and 10 mg/kg qd): well tolerated inducing minimal bwl; Average body weight change in % per mouse at nadir [5, 28]: −4.3%; Drug death (Day of death) [5, 28]: 0/7; day of nadir [5, 28]: 21 days; ΔT/ΔC % (day 22) [5, 28]: 35%
C[C@H]1Cc2ccccc2N1C(=O)Cc1nc(N2CCOCC2)cc(=O)[nH]1 [Compound (I), 2-{2-[(2S)-2-methyl-2,3-dihydro-1H-indol-1-yl]-2-oxoethyl}-6-(morpholin-4-yl)pyrimidin-4(3H)-one]	–	54 (53.4)	132 (62.3)	162 (47.4)	272 (20.8)	138 (100.8)	54 (53.4)	132 (62.3)	162 (47.4)	272 (20.8)	138 (100.8)	7	54 (62.3)	145 (71.2)	303 (63.8)	145 (89)	54 (62.3)	145 (71.2)	303 (63.8)	145 (89)	Absolute IC40 ([2]; example 3): 834 nM; IC50 (PI3K gamma): > 10000 nM; Average body weight change in % per mouse at nadir [5, 25]: −2.9%; Drug death (Day of death) [5, 25]: 0/7; day of nadir [5, 25]: 15 days; ΔT/ΔC % (day 15) [5, 25]: 39%
